Laboratory results taken from patent publication US20260293897A1, “COMPOUND CONTAINING FIVE-MEMBERED HETEROCYCLE, PREPARATION METHOD THEREFOR, AND APPLICATION THEREOF” (QINGDAO KANGQIAO PESTICIDES AND CHEMICALS GROUP CO., LTD., priority 2022, published 2026).
Read-outs that look alike come from different tables or passages of the source.

What was measured:
Assay type in all cases: in vivo
[1] = tested on: Resistant Plutella xylostella; test: Resistant Plutella xylostella Controlling Activity Test; details: Plutella xylostella, in Raphanus sativus, 72 h
Procedure: Resistant Plutella xylostella Controlling Activity Test:
Leaf dipping method was used, the appropriate amount of radish leaves were dipped into the drug for 10 s, placed in a plastic petri dish padded with filter paper and dried naturally, each dish was connected with 10 heads of 2nd instar small cabbage moths, placed in the observation room at 24° C. and light (16/8 h). 72 h later observation was made, and the body of the insect was touched lightly with a brush and no reaction was regarded as a dead insect, which was repeated for three times, and a blank control was also set up without any additional agent.

Tetranychus cinnabarinus = Tetranychus cinnabarinus Controlling Activity Test; details: 72 h; for mortality at 1.6 ppm: read-out: mortality against Tetranychus cinnabarinus; for mortality at 1.56 ppm / mortality at 3.125 ppm / mortality at 6.25 ppm / mortality at 12.5 ppm: in Phaseolus vulgaris
Procedure: Tetranychus cinnabarinus Controlling Activity Test:
The test compound was dissolved in acetone and diluted to the desired concentration with 0.1 wt % aqueous tween 80, the acetone content not exceeding 5 wt %.
One real leaf was removed from kidney bean seedlings grown to two real leaves, inoculating Tetranychus cinnabarinus, investigating the base number, performing whole plant spraying treatment by using a handheld sprayer, repeating the treatment for 3 times (the application amount of the preparation is about 0.5 g), observing in a constant-temperature observation room after the treatment, investigating the number of live mites after 72 hours, and calculating the mortality. The number of Tetranychus cinnabarinus inoculated in each time is 35-100.
Mortality%=(number of inoculated insects−number of live insects after drug administration)÷number of inoculated insects×100%

[2] = tested on: Frankliniella occidentalis larvae; test: Frankliniella occidentalis Larva Controlling Activity Test; details: for mortality at 3.25 ppm: read-out: mortality for Frankliniella occidentalis larvae
Procedure: Frankliniella occidentalis Larva Controlling Activity Test:
The test compound is dissolved in acetone and diluted to the desired concentration. 0.5 mL of the prepared acetone medicinal liquid is added into a glass tube (the inner diameter is 1 cm, the length is 10 cm), and the glass tube is repeatedly rolled on a flat table until the acetone solution is completely volatilized. Soaking cabbage leaves in the liquid medicine with the corresponding concentration for 15 s, drying, placing in a glass tube, inoculating 10-20 heads of Frankliniella occidentalis larvae in the glass tube, repeating the treatment for three times, observing in a constant-temperature observation room after the treatment, investigating the number of live insects after 72 hours, and calculating the mortality.

[3] = tested on: Sensitive Plutella xylostella; test: Sensitive Plutella xylostella Controlling Activity Test
Description: Sensitive Plutella xylostella Controlling Activity Test:
Test targets: Plutella xylostella, 3 rd instar larvae, a sensitive strain raised indoors.
The test method comprises the following steps: selecting fresh cabbage leaves cultivated in a greenhouse, making the cabbage leaves into round with the diameter of 3 cm by using a puncher, putting the circular blade into prepared liquid medicine to be soaked for 10 s according to the sequence from low dose to high dose of experimental design, naturally drying the cabbage leaves in the shade, putting the soaked cabbage leaves into a culture dish with filter paper and the diameter of 9 cm, inoculating regular healthy test insects, n=10, repeating the treatment for 3 times, and additionally setting blank control.

Spodoptera frugiperda = Spodoptera frugiperda Indoor Toxicity Determination Test; details: in Zea mays, read-out: mortality against Spodoptera frugiperda
Description: Spodoptera frugiperda Indoor Toxicity Determination Test
Test targets: Spodoptera frugiperda, 3rd instar larvae, a sensitive strain raised indoors.
The test method comprises the following steps: firstly, selecting fresh corn leaves cultivated in a greenhouse, cutting the fresh corn leaves into 5 cm-long leaf segments, sequentially arranging the test design from low dose to high dose, soaking the fresh corn leaves in prepared liquid medicine for 10 s, naturally drying the fresh corn leaves in the shade, then placing the dried corn leaves in a culture dish with filter paper and the diameter of 9 cm, inoculating regular healthy test insects, n=10, repeating the treatment for 3 times, and additionally arranging blank control.

Phyllotreta striolata = Phyllotreta striolata Controlling Activity Test; details: 72 h, read-out: mortality against Phyllotreta striolata
Procedure: Phyllotreta striolata Controlling Activity Test:
Preparing liquid medicine according to the experimental design concentration, selecting fresh cabbage leaves, soaking the cabbage leaves for 15 s, taking out, airing, placing in a glass tube, connecting 20-25 heads of the Flea beetles adults with each tube, repeating the treatment for 3 times, investigating the death condition of the Phyllotreta striolata after 72 hours, and calculating and correcting the death rate.

[4] = read-out: mortality against Plutella xylostella
[5] = 3.25 ppm (3.125 mg/L), larvae, 72 hours
[6] = 1 ppm (1 mg/L), 3rd instar larvae, sensitive strain, read-out: mortality against Plutella xylostella

`CNC(=O)c1cc(Cl)cc(C)c1NC(=O)c1cc(Br)nn1-c1ncccc1Cl` [Chlorantraniliprole, reference compound] showed a mortality at 0.2 ppm [1] of 33.3%, a mortality at 1 ppm [1] of 40% and a mortality at 5 ppm [1] of 66.7%.
`Cc1cc(C2=NOC(c3cc(Cl)c(Cl)c(Cl)c3)(C(F)(F)F)C2)ccc1C(=O)NC1CCS(=O)(=O)C1` (centres unmarked) [Compound I-3, N-(1,1-dioxotetrahydrothiophen-3-yl)-2-methyl-4-(5-(3,4,5-trichlorophenyl)-5-(trifluoromethyl)-4,5-dihydroisoxazol-3-yl) benzamide] showed a mortality at 1.6 ppm (Tetranychus cinnabarinus) of over 90%, a mortality at 3.25 ppm ([2]; 72 h) of over 90% and a mortality at 1 ppm [3, 4] of over 90%.
Work on `CC(=O)N(C(=O)c1ccc(C2=NOC(c3cc(Cl)c(F)c(Cl)c3)(C(F)(F)F)C2)cc1C)C1CCS(=O)(=O)C1` (centres unmarked) [Compound I-9, N-acetyl-4-(5-(3,5-dichloro-4-fluorophenyl)-5-(trifluoromethyl)-4,5-dihydroisoxazol-3-yl)-N-(1,1-dioxotetrahydrothiophen-3-yl)-2-methylbenzamide] yielded a mortality at 1.6 ppm (Tetranychus cinnabarinus) of over 90%, a mortality at 3.25 ppm ([2]; 72 h) of over 90% and a mortality at 1 ppm [3, 4] of over 90%. It also gave a mortality at 0.2 ppm [1] of 43.3%, a mortality at 1 ppm [1] of 100% and a mortality at 5 ppm [1] of 100%.
Molecule `CCC(=O)N(C(=O)c1ccc(C2=NOC(c3cc(Cl)c(F)c(Cl)c3)(C(F)(F)F)C2)cc1C)C1CCS(=O)(=O)C1` (centres unmarked) [Compound I-10, N-propionyl-4-(5-(3,5-dichloro-4-fluorophenyl)-5-(trifluoromethyl)-4,5-dihydroisoxazol-3-yl)-N-(1,1-dioxotetrahydrothiophen-3-yl)-2-methylbenzamide] has a mortality at 1.6 ppm (Tetranychus cinnabarinus) of over 90%, a mortality at 1.56 ppm (Tetranychus cinnabarinus) of 97.2% and a mortality at 3.125 ppm (Tetranychus cinnabarinus) of 100%. It also gave a mortality at 6.25 ppm (Tetranychus cinnabarinus) of 100%, a mortality at 12.5 ppm (Tetranychus cinnabarinus) of 100% and a mortality at 1 ppm (Spodoptera frugiperda) of over 90%. It also gave a mortality at 3.25 ppm ([2]; 72 h) of over 90%, a mortality at 1.56 ppm ([2]; in Brassica oleracea, 72 h) of 92% and a mortality at 3.125 ppm ([2]; in Brassica oleracea, 72 h) of 100%. The mortality at 6.25 ppm ([2]; in Brassica oleracea, 72 h) was 100% and the mortality at 1 ppm [3, 4] was over 90%.
With `Cc1cc(C2=NOC(c3cc(Cl)c(F)c(Cl)c3)(C(F)(F)F)C2)ccc1C(=O)N[C@H]1CCS(=O)(=O)C1` (stereo partly drawn) [Compound I-13, 4-(5-(3,5-dichloro-4-fluorophenyl)-5-(trifluoromethyl)-4,5-dihydroisoxazol-3-yl)-N—((S)-1,1-dioxotetrahydrothiophen-3-yl)-2-methylbenzamide] the mortality at 3.25 ppm ([2]; 72 h) was over 90% and the mortality at 1 ppm [3, 4] was over 90%.
`Cc1cc(C2=NOC(c3cc(Cl)c(F)c(Cl)c3)(C(F)(F)F)C2)ccc1C(=O)N[C@@H]1CCS(=O)(=O)C1` (stereo partly drawn) [Compound I-14, 4-(5-(3,5-dichloro-4-fluorophenyl)-5-(trifluoromethyl)-4,5-dihydroisoxazol-3-yl)-N—((R)-1,1-dioxotetrahydrothiophen-3-yl)-2-methylbenzamide] showed a mortality at 1.6 ppm (Tetranychus cinnabarinus) of over 90%, a mortality at 1.56 ppm (Tetranychus cinnabarinus) of 100% and a mortality at 3.125 ppm (Tetranychus cinnabarinus) of 100%. For the same molecule, the mortality at 6.25 ppm (Tetranychus cinnabarinus) was 100%, the mortality at 12.5 ppm (Tetranychus cinnabarinus) was 100% and the mortality at 1 ppm (Spodoptera frugiperda) was over 90%. The mortality at 50 ppm (Phyllotreta striolata) was over 90%, the mortality at 3.25 ppm ([2]; 72 h) was over 90% and the mortality at 1 ppm [3, 4] was over 90%.
`Cc1cc(C2=NO[C@@](c3cc(Cl)c(F)c(Cl)c3)(C(F)(F)F)C2)ccc1C(=O)N[C@H]1CCS(=O)(=O)C1` [Compound I-15] gave a mortality at 3.25 ppm [2, 5] of over 90% and a mortality at 1 ppm [3, 6] of over 90%.
`Cc1cc(C2=NO[C@@](c3cc(Cl)c(F)c(Cl)c3)(C(F)(F)F)C2)ccc1C(=O)N[C@@H]1CCS(=O)(=O)C1` [Compound I-16] gave a mortality at 3.25 ppm [2, 5] of over 90% and a mortality at 1 ppm [3, 6] of over 90%.
`Cc1cc(C2=NO[C@@](c3cc(Cl)c(F)c(Cl)c3)(C(F)(F)F)C2)ccc1C(=O)NC1CCS(=O)(=O)C1` (stereo partly drawn) [Compound I-17, 4-((S)-5-(3,5-dichloro-4-fluorophenyl)-5-(trifluoromethyl)-4,5-dihydroisoxazol-3-yl)-N-(1,1-dioxotetrahydrothiophen-3-yl)-2-methylbenzamide] gave a mortality at 1.6 ppm (Tetranychus cinnabarinus) of over 90%, a mortality at 1.56 ppm (Tetranychus cinnabarinus) of 100% and a mortality at 3.125 ppm (Tetranychus cinnabarinus) of 100%. It also gave a mortality at 6.25 ppm (Tetranychus cinnabarinus) of 100%, a mortality at 12.5 ppm (Tetranychus cinnabarinus) of 100% and a mortality at 50 ppm (Phyllotreta striolata) of over 90%. It also gave a mortality at 3.25 ppm ([2]; 72 h) of over 90% and a mortality at 1 ppm [3, 4] of over 90%.
Molecule `Cc1cc(C2=NO[C@](c3cc(Cl)c(F)c(Cl)c3)(C(F)(F)F)C2)ccc1C(=O)N[C@H]1CCS(=O)(=O)C1` [Compound I-18] has a mortality at 3.25 ppm [2, 5] of over 90% and a mortality at 1 ppm [3, 6] of over 90%.
With `Cc1cc(C2=NOC(c3cc(Cl)c(F)c(Cl)c3)(C(F)(F)F)C2)ccc1C(=O)N(C(=O)C(C)C)C1CCS(=O)(=O)C1` (centres unmarked) [Compound I-21, N-isopropionyl-4-(5-(3,5-dichloro-4-fluorophenyl)-5-(trifluoromethyl)-4,5-dihydroisoxazol-3-yl)-N-(1,1-dioxotetrahydrothiophen-3-yl)-2-methylbenzamide] the mortality at 3.25 ppm ([2]; 72 h) was over 90% and the mortality at 1 ppm [3, 4] was over 90%.
In the case of `Cc1cc(C2=NOC(c3cc(Cl)c(F)c(Cl)c3)(C(F)(F)F)C2)ccc1C(=O)N(C(=O)C1CC1)C1CCS(=O)(=O)C1` (centres unmarked) [Compound I-22, N-cyclopropanoyl-4-(5-(3,5-dichloro-4-fluorophenyl)-5-(trifluoromethyl)-4,5-dihydroisoxazol-3-yl)-N-(1,1-dioxotetrahydrothiophen-3-yl)-2-methylbenzamide], the mortality at 3.25 ppm ([2]; 72 h) is reported as over 90% and the mortality at 1 ppm [3, 4] is reported as over 90%.
`Cc1cc(C2=NOC(c3cc(Cl)c(F)c(Cl)c3)(C(F)(F)F)C2)ccc1C(=O)NC1CCSC1` (centres unmarked) [Compound I-23] was tested, and the mortality at 3.25 ppm [2, 5] was over 90% and the mortality at 1 ppm [3, 6] was over 90%.
With `CO/N=C/NC(=O)c1ccc(C2=NOC(c3cc(Cl)cc(Cl)c3)(C(F)(F)F)C2)cc1C` (centres unmarked) [Fluxametamide, 4-[5-(3,5-dichlorophenyl)-4,5-dihydro-5-(trifluoromethyl)-3-isoxazolyl]-N-[(methoxyamino)methylene]-2-methylbenzamide, reference compound] the mortality at 1.56 ppm (Tetranychus cinnabarinus) was 0%, the mortality at 3.125 ppm (Tetranychus cinnabarinus) was 25.6% and the mortality at 6.25 ppm (Tetranychus cinnabarinus) was 81.5%. The mortality at 12.5 ppm (Tetranychus cinnabarinus) was 96.8%, the mortality at 1.56 ppm ([2]; in Brassica oleracea, 72 h) was 0% and the mortality at 3.125 ppm ([2]; in Brassica oleracea, 72 h) was 0%. It also gave a mortality at 6.25 ppm ([2]; in Brassica oleracea, 72 h) of 0%, a mortality at 0.333 ppm ([3]; in Brassica oleracea, 72 h) of 0% and a mortality at 1 ppm ([3]; in Brassica oleracea, 72 h) of 5%. It also gave a mortality at 0.2 ppm [1] of 3.33%, a mortality at 1 ppm [1] of 93.3% and a mortality at 5 ppm [1] of 100%.
`Cc1cc(C2=NOC(c3cc(Cl)c(F)c(Cl)c3)(C(F)(F)F)C2)ccc1C(=O)NC1CS(=O)(=O)C1` (centres unmarked) [X.82, reference compound] showed a mortality at 1.56 ppm ([2]; 1.56 ppm, larvae, cabbage leaves soaked 15 s, 72 hours, read-out: Mortality (%)) of 0%, a mortality at 3.125 ppm ([2]; 3.125 ppm, larvae, cabbage leaves soaked 15 s, 72 hours, read-out: Mortality (%)) of 0% and a mortality at 6.25 ppm ([2]; 6.25 ppm, larvae, cabbage leaves soaked 15 s, 72 hours, read-out: Mortality (%)) of 65%. It also gave a mortality at 0.333 ppm ([3]; 72 h, 0.333 ppm, 3rd instar larvae, sensitive strain, cabbage leaves soaked 10 s, three days, read-out: Mortality (%)) of 0% and a mortality at 1 ppm ([3]; 72 h, 1 ppm, 3rd instar larvae, sensitive strain, cabbage leaves soaked 10 s, three days, read-out: Mortality (%)) of 10%.
